Experimental data taken from patent publication US20200018743A1, “MINI-CANCERS UTILIZATION FOR PERSONALIZED CANCER DRUG REGIMENS” (THE JOHNS HOPKINS UNIVERSITY, priority 2017, published 2020).
“Also recorded” adds a separate entry of the source. Where two headings read alike, the source gives them in different places. Starred links: 1 amine or outer side, 2 acyl side, 3 side chain; linkers in the order of their positions; H or OH if unused. Positions of bridges follow the written chain, without caps; N, C: chain ends. Non-standard residues stand in square brackets, D forms with d. Residues, ends and D or L forms follow the SMILES beside them. Chains are numbered I, II in the order given. Actinocin(9to1) = Cc1c2oc3c(C)ccc(C(=O)[*:1])c3nc-2c(C(=O)[*:2])c(N)c1=O; NMeV = CN[C@H](C(=O)O)C(C)C; Sar = CNCC(=O)O

Legend:
[1] = test system: CCA8 sister CCA PDO lines; assay: 129-drug panel on the 6 sister PDO lines of CCA8; assay type: cell-based, human
Excerpt: (§1) This intra tumor functional heterogeneity was investigated by calculating the standard deviation of a drug response across all PDO lines established from a patient tumor. […] The inventors chose one of the cancer specimens (CCA8) for further in-depth studies of intra-tumor functional heterogeneity and the identification of its drivers. […] To visualize this phenomenon, we calculated the standard deviation of each drug effect across the 6 PDOs (FIG. 20D). […] To this end, we first chose drugs that induced 30% or less viability in at least one of the 6 sister CCA PDO lines when tested at a 10 uM concentration. […] Of note, there is no known genetic alteration (mutational or otherwise) to predict the response of human cancers to proteasome inhibitors.
(§2) PDOs were plated in 96-well or 384-well plates and cultured for 3 days. Next, media was changed with drug-containing media. The initial screen was performed at a concentration of 10 uM. After 4 days, viability was determined in each well with Cell TiterGlo (Cat #: G7572, Promega, Wis.) following the manufacturer's instruction. […] was measured with a plate reader (Perkin-Elmer EnVision Plate Reader). Drugs that induced less than 50% viability were chosen for future studies.

[2] = test system: 27 liver cancer PDO lines; assay: High throughput screening of NCI VII 129-drug panel on 27 liver cancer PDO lines (CellTiter-Glo); assay type: cell-based, human; details: for effectiveness across the cohort of primary liver mini-cancers / all 27 liver cancer PDO lines: 10 uM, CellTiter-Glo; for inter patient effect (mean cell viability per patient cancer specimen): across the 5 patients' cancers
Excerpt: To pick out inter patient divergent drugs (i.e., drugs with discordant effect across the 5 patients), we calculated the mean cell viability per patient cancer specimen by averaging the effect of the drugs across all PDO lines established for the same patient. This mean cell viability per patient is a measure of how the tumor, as a whole, responds to a certain drug. Next, we calculated the standard deviation of the 5 means (one per patient) and ordered the data in decreasing order of the standard deviation. […] To further visualize the inter-patient divergence of drug effects, the inventors constructed a heat map of drug responses per each patient (utilizing the mean cell viability over all clones from each patient, FIG. 20B).
as §1
Take out Matrigel from −20 C and keep at 4 C overnight. Also keep pipette tips at 4 C overnight. Count cells. Mix cells with Matrigel so that you have 200 cells per uL of Matrigel. […] Plate 2 rows, then stop. Wait till the Matrigel is solid. Then add 100 uL of growth passage media. Then continue till all plate is filled up with cells. Place plate into incubator. Take picture with white light. After 4 days replace the media with media containing drugs (90 uL media+10 uL drug work solution). Use a multi-pipette.
as §2

CCA PDO = assay: Drug testing on a CCA PDO line read by white light / bright field images; assay type: cell-based, human; details: for effect on PDO (shape, number or size of cystic PDO structures): 9-drug library, 10 uM, white light images; for effect on PDO growth (cytocidal / cytostatic): over 96 hours
Protocol: In preliminary studies, the inventors have obtained resection cancer tissue from 10 CCA patients. […] Pilots experiments were performed with a 9-drug library, at a standard HT screening drug concentration of 10 uM. For positive control, the inventors used 10% Triton X, while for negative control the inventors used DMSO at same concentration used to dissolve drugs. […] As proof of concept, the inventors then expanded to the 1,600 drug JHCCL Hopkins library (data not shown). […] This scale-up required a reproducible and accurate read out. We chose CellTiter-Glo (Promega), an ATP-based cytotoxicity assay that quantifies metabolically active cells. […] Next, the inventors sought to determine IC50s. […] Next, the inventors performed whole exome sequencing on a subset of these CCA PDOs. […] The inventors next performed pilot trials with high-content imaging. We utilized DRAQ5 (red) to stain nuclei and YOYO-1 (green in FIG. 9) to stain dead cells. In this experiment, we treated a CCA PDO culture with Gemcitabine, at concentrations from 10 to 0.1 uM. […] FIG. 10 is a representative 100× Hematoxylin and Eosin image of a PDX tumor.
Initial drug testing experiments were performed on one PDO line, with a 9-drug library, at a standard HT screening drug concentration of 10 uM. For these experiments, we utilized a CCA PDO line. For positive control, we used 10% Triton X, while for negative control we used DMSO […] same concentration used to dissolve drugs. For these experiments, we utilized white light images and equated the killing effect of drugs into shrinking of PDO cystic structures. […] To this end, we tested the 5 chemotherapy agents typically used in CCA patients, as well as several combinations (FIG. 18C). […] Next, we sought a fast, reproducible and relatively inexpensive read out of cell death (or inhibited proliferation). We chose CellTiter-Glo (Promega), which is an ATP-based cytotoxicity assay that quantifies metabolically active cells. […] Therefore, we have used CellTiter-Glo for all subsequent experiments. […] By using CellTiter-Glo, we quantified the viability of cells treated with single agents as well as combinations (as in FIG. 18C).

HCC = HCC patients; cited from earlier work

Compound | killing effect / activity across the 6 PDO lines ([1]; CCA8, 10 uM) | effectiveness across the cohort of primary liver mini-cancers / all 27 liver cancer PDO lines [2] | further results
O=C(/C=C/c1cccc(S(=O)(=O)Nc2ccccc2)c1)NO [Belinostat] | moderate activity in 1/6 PDO lines and generally poor activity in 5/6 |  | 
CC(C)C[C@H](NC(=O)[C@H](CCc1ccccc1)NC(=O)CN1CCOCC1)C(=O)N[C@@H](Cc1ccccc1)C(=O)N[C@@H](CC(C)C)C(=O)[C@@]1(C)CO1 [Carfilzomib, carifilzomib] | effective across the 6 PDO lines | pan-effective | 
Cc1cc(Nc2ncc(Cl)c(Nc3ccccc3S(=O)(=O)C(C)C)n2)c(OC(C)C)cc1C1CCNCC1 [Ceritinib] | high activity in 3/6 and almost no activity in the rest 3/6 PDO lines |  | 
N.N.[Cl][Pt][Cl] [Cisplatin] | uniformly ineffective |  | effect on PDO (shape, number or size of cystic PDO structures) (CCA PDO): no effect; also recorded: did not appear to have any effect; effect on PDO (shape, number or size of cystic PDO structures) (CCA PDO; listed as cisplatin): no effect on the round shape of PDO; effectiveness in CCAs tested (CCA PDO; all 6 CCAs tested): ineffective; effect on PDO growth (cytocidal / cytostatic) (CCA PDO): ineffective; also recorded: unaffected PDO growth
Cc1c2oc3c(C)ccc(C(=O)N[C@@H]4C(=O)N[C@H](C(C)C)C(=O)N5CCC[C@H]5C(=O)N(C)CC(=O)N(C)[C@@H](C(C)C)C(=O)O[C@@H]4C)c3nc-2c(C(=O)N[C@@H]2C(=O)N[C@H](C(C)C)C(=O)N3CCC[C@H]3C(=O)N(C)CC(=O)N(C)[C@@H](C(C)C)C(=O)O[C@@H]2C)c(N)c1=O [Dactinomycin, dactinomycin] (I: T[dV]P[Sar][NMeV] / II: T[dV]P[Sar][NMeV]; ester I:1-I:C, II:1-II:C; linker I:N-II:N via Actinocin(9to1)) |  |  | inter patient effect (mean cell viability per patient cancer specimen) [2]: work well in just 1 cancer
COc1cccc2c1C(=O)c1c(O)c3c(c(O)c1C2=O)C[C@@](O)(C(=O)CO)C[C@@H]3O[C@H]1C[C@H](N)[C@H](O)[C@H](C)O1 [Doxorubicin] |  |  | inter patient effect (mean cell viability per patient cancer specimen) [2]: work in majority of cancers, but not in all of them
COc1cccc2c1C(=O)c1c(O)c3c(c(O)c1C2=O)C[C@@](O)(C(=O)CO)C[C@@H]3O[C@H]1C[C@H](N)[C@@H](O)[C@H](C)O1 [Epirubicin] | wide response |  | 
Nc1ccn([C@@H]2O[C@H](CO)[C@@H](O)C2(F)F)c(=O)n1 [Gemcitabine] | moderate activity in 1/6 and poor activity in 5/6 PDO lines |  | effect on PDO (shape, number or size of cystic PDO structures) (CCA PDO): moderate cytostatic but not a cytocydal effect; effect on PDO growth (cytocidal / cytostatic) (CCA PDO): moderate cytostatic, but not cytocidal effect; effect on PDO growth (cytocidal / cytostatic) (CCA PDO; listed as Gemicitabine): partially effective; inter patient effect (mean cell viability per patient cancer specimen) [2]: work in majority of cancers, but not in all of them
CC(=O)[C@]1(O)Cc2c(O)c3c(c(O)c2[C@@H](O[C@H]2C[C@H](N)[C@H](O)[C@H](C)O2)C1)C(=O)c1ccccc1C3=O [Idarubicin, idarubicin] | effective across the 6 PDO lines | pan-effective | 
CC[C@H](Nc1ncnc2[nH]cnc12)c1nc2cccc(F)c2c(=O)n1-c1ccccc1 [Idelalisib] | uniformly ineffective |  | 
CC(C)C[C@H](NC(=O)CNC(=O)c1cc(Cl)ccc1Cl)B(O)O [Ixazomib, ixazomib] | effective across the 6 PDO lines | pan-effective | 
CS(=O)(=O)CCNCc1ccc(-c2ccc3ncnc(Nc4ccc(OCc5cccc(F)c5)c(Cl)c4)c3c2)o1 [Lapatinib] | uniformly ineffective |  | 
N#Cc1ccc(C(c2ccc(C#N)cc2)n2cncn2)cc1 [Letrozole] | uniformly ineffective |  | 
N[C@@H](Cc1ccc(N(CCCl)CCCl)cc1)C(=O)O [Melphalan] | uniformly ineffective |  | 
CO[C@@]12[C@H](COC(N)=O)C3=C(C(=O)C(C)=C(N)C3=O)N1C[C@@H]1N[C@@H]12 [Mitomycin, mitomycin] |  |  | killing effect / activity across the 6 PDO lines [1]: effective across the 6 PDO lines
COC(=O)C[C@](O)(CCCC(C)(C)O)C(=O)O[C@@H]1C(OC)=C[C@]23CCCN2CCc2cc4c(cc2[C@H]13)OCO4 [Omacetaxine, omacetaxine] | wide response |  | 
Cc1[nH]c2ccccc2c1CCNCc1ccc(/C=C/C(=O)NO)cc1 [Panobinostat, panobinostat] |  | pan-effective | 
C/C=C1\NC(=O)[C@H]2CSSCC/C=C/[C@H](CC(=O)N[C@H](C(C)C)C(=O)N2)OC(=O)[C@H](C(C)C)NC1=O [Romidepsin, romidepsin] | effective across the 6 PDO lines | pan-effective | 
CNC(=O)c1cc(Oc2ccc(NC(=O)Nc3ccc(Cl)c(C(F)(F)F)c3)cc2)ccn1 [Sorafenib] |  |  | inter patient effect (mean cell viability per patient cancer specimen) [2]: work in majority of cancers, but not in all of them; improvement of survival (HCC): 3 months; side effects (HCC): severe side effects
O=C1CCC(N2C(=O)c3ccccc3C2=O)C(=O)N1 (stereo not shown) [Thalidomide] | uniformly ineffective |  | 
CCC1=C[C@@H]2CN(C1)Cc1c([nH]c3ccccc13)[C@@](C(=O)OC)(c1cc3c(cc1OC)N(C)[C@H]1[C@@](O)(C(=O)OC)[C@H](OC(C)=O)[C@]4(CC)C=CCN5CC[C@]31[C@@H]54)C2 [Vinorelbine] |  |  | effect on PDO (shape, number or size of cystic PDO structures) (CCA PDO): effective
COc1cccc2c1C(=O)c1c(O)c3c(c(O)c1C2=O)C[C@@](O)(C(C)=O)C[C@@H]3O[C@H]1C[C@H](N)[C@H](O)[C@H](C)O1 [daunorubicin] |  | pan-effective | 
CC[C@@]1(O)C(=O)OCc2c1cc1n(c2=O)Cc2cc3c(CN(C)C)c(O)ccc3nc2-1 [topotecan] |  | pan-effective | 
CC[C@]1(O)C[C@H]2CN(CCc3c([nH]c4ccccc34)[C@@](C(=O)OC)(c3cc4c(cc3OC)N(C=O)[C@H]3[C@@](O)(C(=O)OC)[C@H](OC(C)=O)[C@]5(CC)C=CCN6CC[C@]43[C@@H]65)C2)C1 [vincristine] |  |  | inter patient effect (mean cell viability per patient cancer specimen) [2]: work well in just 1 cancer
plicamycin | effective across the 6 PDO lines | pan-effective | 
